Test results taken from US20060121449A1, “Method for selection of compounds which inhibit clonal cell growth and use thereof” (priority 2002, published 2006).
“Also recorded” adds a separate entry of the source. Like-named read-outs stand apart in the source and are kept apart here.

Key:
[1] = tested on: polyoma virus transformed BHK21/c13 cells, clone S100T1; test: Clonal test: clonal growth of S100T1 cells in soft agar (Exp 2, 4, 6, 15, 16); type: cell-based, hamster; conditions: for Growth, results after 3 days / Concentration inhibiting (stopping) clonal growth: Exp 2; for Growth, results after 3 days: 400000 S100T1 cells, 1.5% agarose; for Concentration inhibiting (stopping) clonal growth: S100T1, 1.5% agarose, 3 days; for Clonal growth, result day 7: Exp 4, 3 μM, 120000 S100T1 cells, 1.1% agarose; for Significance / Growth: 4-OH—OPB No 11; for Clonal inhibition: S100T1
BHK21/c13 cells = test: Surface growth (degree of confluence) of BHK21/c13 cells on plastic (Exp 5); type: cell-based, hamster; conditions: for Concentration giving about full inhibition of growth on surface: 2-4 days
Description: The degree of confluence of polyoma virus transformed BHK21/c13 cells, the S100T1 cell strain, growing on plastic surface was observed 2-4 days after seeding 3000 or […] cells in appropriate wells of a 96 well tissue culture plate (Nunc).

[2] = Exp 7, 1.62 μl 20 mM i.p. two times a week, 45.5 at day 0
[3] = Exp 8 mouse 1: 1.26 μl 20 mM i.p. from day 0 (42 μM i.p.)
[4] = Exp 8 mouse 2: 0.42 μl 20 mM i.p. from day 0 (14 μM i.p.)
[5] = Exp 8 mouse 3: 0.14 μl 20 mM i.p. from day 0 (4.7 μM i.p.)
[6] = Exp 8 mouse 4: 0.047 μl 20 mM i.p. from day 0 (1.6 μM i.p.)
[7] = Exp 8 mouse 6: 1.13 μl 20 mM i.p., first injection 24 h after tumour (37.7 μM i.p.)
[8] = Exp 8 mouse 7: 1.09 μl 20 mM i.p., first injection 3 days after tumour
[9] = Exp 8 mouse 7: 1.09 μl 20 mM i.p., first injection 3 days after tumour (36.3 μM i.p.)
[10] = Exp 8 mouse 7: 1.09 μl 20 mM i.p., first injection 3 days after tumour (36.3 μM i.p.), listed as 4-OH—OPB

Description for Ehrlich ascites tumour: Tumour cells harvested from ascitic mouse were mainly solitary.
The experiment describes transplantation of the malignant mouse Ehrlich ascites tumour to two adult male mice (NMRI/Bom). Each of them received 100000 cells intraperitonally. One mouse was treated two times a week with 4-OH-OPB intraperitonally.
Cells were injected 90 minutes after the addition of 4-OH-OPB to the suspension. The control received the same cell suspension without 4-OH-OPB.
At the same time, dilutions of 4-OH-OPB were injected intraperitonally to the transplanted mice in order to find the smallest active dose.
The cells from ascites in the untreated control mouse was frozen on serum with 10% DMSO. The cells were thawed in water of 37° C., diluted in serum, and pelleted by low speed centrifugation after the addition of 2 ml FBS, to remove DMSO.
Each animal received such cells suspended in portions of 1 ml in RPMI (pH˜6.9).
The frozen and thawed Ehrlich ascites cells are diluted in a volume of 1 ml RPMI (pH˜6.9) for each animal. No calf serum was added to the medium to avoid immunisation of the mice.
Cell number: 90000 tumour cells in 0.7 ml RPMI were injected intraperitonally to each animal.
The total cell number in the ampoule was 7.5 million cells. The cells were thawed, and 2 ml FBS was added before low speed centrifugation. […] Than separate vessels were prepared for each animal. The cell tube for animal number 3 received Colchicine as indicated in the table on day 0 one hour before the cells were injected.
After mixing the same volume was transferred from this tube to the last tube.
The content of the last two tubes was injected intraperitonally to each of the mice number 1 and 2 respectively.

SMILES: CCCCC1(O)C(=O)N(c2ccccc2)N(c2ccc(O)cc2)C1=O (centres unmarked) [4-OH-OPB, 4-butyl-4-hydroxy-2(p-hydroxyphenyl)-1-phenyl-3,5-pyrazolidinedione]
- Growth, results after 3 days ([1]; 500 nM): inhibited
- Growth, results after 3 days ([1]; 1000 nM): inhibited
- Growth, results after 3 days ([1]; 1500 nM): inhibited
- Growth, results after 3 days ([1]; 2000 nM): inhibited
- Growth, results after 3 days ([1]; 3000 nM): inhibited
- Concentration inhibiting (stopping) clonal growth [1]: ≥ 500 nM
- Concentration inhibiting (stopping) clonal growth ([1]; listed as 4-OH—OPB): Even 500 nM stopped clonal growth
- Clonal growth, result day 7 [1]: no growth was observed
- Clonal growth, result day 7 ([1]; listed as 4-OH—OPB): Single cells only; also recorded: Completely stopped clonal growth in
- Susceptibility after single cells had formed small clones (colonies) ([1]; Exp 6): no longer susceptible
- Concentration giving good clonal inhibition ([1]; Exp 6, S100T1, 120000 cells, treatment immediately after seeding): above 1 μM
- Growth inhibition at 30 μM when treatment delayed 24 hours ([1]; Exp 6, S100T1, small colonies already formed): small growth inhibition; also recorded: some inhibition of growth
- Susceptibility after single cells had formed small clones (colonies) ([1]; Exp 6, listed as 4-OH—OPB): they were not susceptible any more.
- Effect on clonal growth at 2 and 20 μM ([1]; Exp 15, 32000 S100T1 cells/well): inhibiting clonal growth
- Control compared with the other compounds ([1]; Exp 16): clearly better than any other
- Significance ([1]; Exp 16 day 14, 0.67 μM): yes
- Growth ([1]; Exp 16 day 14, 0.67 μM in wells): −
- Significance ([1]; Exp 16 day 14, 6.7 μM): yes
- Growth ([1]; Exp 16 day 14, 6.7 μM in wells): −
- Significance ([1]; Exp 16 day 21, 0.67 μM): yes
- Growth ([1]; Exp 16 day 21, 0.67 μM in wells): −
- Significance ([1]; Exp 16 day 21, 6.7 μM): yes
- Growth ([1]; Exp 16 day 21, 6.7 μM in wells): −
- Clonal inhibition ([1]; 0.3 μM added after 24 hours, read after 48 hours): 0
- Clonal inhibition ([1]; 0.3 μM added immediately, read after 24 hours): 0
- Clonal inhibition ([1]; 0.3 μM added immediately, read after 48 hours): 0
- Clonal inhibition ([1]; 1 μM added after 24 hours, read after 48 hours): 0
- Clonal inhibition ([1]; 1 μM added immediately, read after 24 hours): +
- Clonal inhibition ([1]; 1 μM added immediately, read after 48 hours): 0
- Clonal inhibition ([1]; 3 μM added after 24 hours, read after 48 hours): 0
- Clonal inhibition ([1]; 3 μM added immediately, read after 24 hours): ++
- Clonal inhibition ([1]; 3 μM added immediately, read after 48 hours): +−
- Clonal inhibition ([1]; 10 μM added after 24 hours, read after 48 hours): 0
- Clonal inhibition ([1]; 10 μM added immediately, read after 24 hours): +++
- Clonal inhibition ([1]; 10 μM added immediately, read after 48 hours): +
- Clonal inhibition ([1]; 30 μM added after 24 hours, read after 48 hours): +
- Clonal inhibition ([1]; 30 μM added immediately, read after 48 hours): +++
- Anti-clonal effect, summary of Exp 16 ([1]; S100T1 in soft agar): 4-OH—OPB inhibited clones without escaping colonies.
- Inhibition of clonal growth at 300 nM ([1]; other/earlier experiments): no inhibition
- Concentration needed for total inhibition of surface growth, BHK21/c13 compared to S100T1 (BHK21/c13 cells): about 3 times
- Growth on surface with 100 and 300 nM after 4 days (BHK21/c13 cells; 3000 BHK21/c13 cells/well): growth inhibition compared to the control
- Concentration giving about full inhibition of growth on surface (BHK21/c13 cells; 3000 BHK21/c13 cells/well): 3 µM
- Concentration giving about full inhibition of growth on surface (BHK21/c13 cells; 10000 BHK21/c13 cells/well with 0.1 i.u./ml insulin): 10 µM
- Weight of treated mouse, day 14 (Ehrlich ascites tumour; [2]): 42.6 g
- Weight of treated mouse, day 18 (Ehrlich ascites tumour; [2]): 44.3 g
- Tumour findings in treated mouse after 19 days (Ehrlich ascites tumour; Exp 7, 1.62 μl 20 mM i.p. two times a week, 100000 Ehrlich cells i.p.): No tumour was detected; also recorded: completely normal without any palpable tumour or signs of ascites or anaemia; also recorded: no pathological signs; also recorded: no tumour or ascites observable
- Ascites (Ehrlich ascites tumour; Exp 7 treated animal, day 19): 0 grams
- Fibrinous material under diaphragm (Ehrlich ascites tumour; Exp 7 treated animal, day 19): 0 grams
- Size of organs: Hart (Ehrlich ascites tumour; Exp 7 treated animal, day 19): 0.20 grams
- Size of organs: Kidneys (Ehrlich ascites tumour; Exp 7 treated animal, day 19): 0.57 grams
- Size of organs: Liver (Ehrlich ascites tumour; Exp 7 treated animal, day 19): 2.38 grams
- Size of organs: Lungs (Ehrlich ascites tumour; Exp 7 treated animal, day 19): 0.3 grams
- Size of organs: Omentum (Ehrlich ascites tumour; Exp 7 treated animal, day 19): 2.36 grams
- Size of organs: Spleen (Ehrlich ascites tumour; Exp 7 treated animal, day 19): 0.184 grams
- Tumour in groin (Ehrlich ascites tumour; Exp 7 treated animal, day 19): 0 grams
- Dose that did not cure when begun the next day or 3 days after transplantation, relative to minimum curative dose (Ehrlich ascites tumour; Exp 8): about 9 times
- Smallest effective dose, in extracellular fluid (Ehrlich ascites tumour; Exp 8): 0.37 µM
- Start of treatment needed for complete rescue (Ehrlich ascites tumour; Exp 8): The treatment had to start immediately
- Outcome when therapy started 24 hours after transplantation or later (Ehrlich ascites tumour; Exp 8, doses in abdomen of 36-38 μM): development of ascites or ascites with solid tumour in addition
- Smallest effective (inhibiting) concentration in the peritoneum (Ehrlich ascites tumour; Exp 8, injected together with the cells and then twice a week): dose was 4.8 μM.
- Day 15 status (Ehrlich ascites tumour; [3]): healthy
- Day 15 weight (Ehrlich ascites tumour; [3]): 33.9 gram
- Day 15 weight/initial weight (Ehrlich ascites tumour; [3]): 0.96
- Result (tumour growth) (Ehrlich ascites tumour; [3]): No tumour
- Section day 17 (Ehrlich ascites tumour; [3]): No pathology found, neither ascites nor solid tumours
- Section day 17 (Ehrlich ascites tumour; Exp 8 mouse 1: 1.26 μl 20 mM i.p. from day 0 (42 μM i.p.), listed as 4-OH—OPB): healthy, no tumour
- Day 15 status (Ehrlich ascites tumour; [4]): healthy
- Day 15 weight (Ehrlich ascites tumour; [4]): 38.7 gram
- Day 15 weight/initial weight (Ehrlich ascites tumour; [4]): 0.97
- Section day 17 (Ehrlich ascites tumour; [4]): No pathology found, neither ascites nor solid tumours
- Section day 17 (Ehrlich ascites tumour; Exp 8 mouse 2: 0.42 μl 20 mM i.p. from day 0 (14 μM i.p.), listed as 4-OH—OPB): healthy, no tumour
- Day 15 status (Ehrlich ascites tumour; [5]): healthy
- Day 15 weight (Ehrlich ascites tumour; [5]): 29.3 gram
- Day 15 weight/initial weight (Ehrlich ascites tumour; [5]): 1.1
- Section day 17 (Ehrlich ascites tumour; [5]): No pathology was found, neither ascites nor solid tumours
- Section day 17 (Ehrlich ascites tumour; Exp 8 mouse 3: 0.14 μl 20 mM i.p. from day 0 (4.7 μM i.p.), listed as 4-OH—OPB): healthy, no tumour
- Ascites relative to control (Ehrlich ascites tumour; [6]): Ascites (0.66 of contr.) + solid
- Day 15 status (Ehrlich ascites tumour; [6]): Ascites
- Day 15 weight (Ehrlich ascites tumour; [6]): 37.4 gram
- Day 15 weight/initial weight (Ehrlich ascites tumour; [6]): 1.33
- Result (tumour growth) (Ehrlich ascites tumour; [6]): Lens-sized tumour at injection site in left abdominal wall
- Section day 17: ascites (Ehrlich ascites tumour; Exp 8 mouse 4: 0.047 μl 20 mM i.p. from day 0 (1.6 μM i.p.), control 6.8 ml): 4.5 mL
- Section day 17: ascites (Ehrlich ascites tumour; Exp 8 mouse 4: 0.047 μl 20 mM i.p. from day 0 (1.6 μM i.p.), control 6.8 ml, listed as 4-OH—OPB): 4.5 ml ascites
- Result (tumour growth) (Ehrlich ascites tumour; Exp 8 mouse 4: 0.047 μl 20 mM i.p. from day 0 (1.6 μM i.p.), listed as 4-OH—OPB): Ascites (0.66 of contr.) + solid
- Ascites relative to control (Ehrlich ascites tumour; [7]): Ascites (0.47 of contr.) + solid
- Day 15 status (Ehrlich ascites tumour; [7]): Healthy
- Day 15 weight (Ehrlich ascites tumour; [7]): 34.5 gram
- Day 15 weight/initial weight (Ehrlich ascites tumour; [7]): 1.09
- Result (tumour growth) (Ehrlich ascites tumour; [7]): At injection site circular branched tumour
- Section day 17: ascites (Ehrlich ascites tumour; Exp 8 mouse 6: 1.13 μl 20 mM i.p., first injection 24 h after tumour (37.7 μM i.p.), control 6.8 ml): 3.15 mL
- Section day 17: ascites (Ehrlich ascites tumour; Exp 8 mouse 6: 1.13 μl 20 mM i.p., first injection 24 h after tumour (37.7 μM i.p.), control 6.8 ml, listed as 4-OH—OPB): 3.2 ml ascites, inj. site
- Result (tumour growth) (Ehrlich ascites tumour; Exp 8 mouse 6: 1.13 μl 20 mM i.p., first injection 24 h after tumour (37.7 μM i.p.), listed as 4-OH—OPB): Ascites (0.47 of contr.) + solid
- Tumour size, Day 8 (Ehrlich ascites tumour; [8]): Tumour = grain
- Tumour size, Day 10 (Ehrlich ascites tumour; [8]): Tumour > grain
- Ascites relative to control (Ehrlich ascites tumour; [9]): 0.00022 % of contr.
- Day 15 status (Ehrlich ascites tumour; [9]): lens-sized
- Day 15 weight (Ehrlich ascites tumour; [9]): 30.5 gram
- Day 15 weight/initial weight (Ehrlich ascites tumour; [9]): 1.00
- Section day 17: ascites (Ehrlich ascites tumour; [9]): 0.015 mL
- Section day 17: solid tumour (Ehrlich ascites tumour; [9]): pea-sized
- Result (tumour growth) (Ehrlich ascites tumour; [10]): Ascites; also recorded: contr.) + solid
- Section day 17: ascites (Ehrlich ascites tumour; [10]): site, 15 μl ascites,
- Section day 17: solid tumour (Ehrlich ascites tumour; [10]): Pea-size tumour at inj.
- tumour in abdominal wall, findings on section (Ehrlich ascites tumour; Exp 18, at killing, control 2 × 3 mm tumour): Lens sized
- ascites with Ehrlich cells, findings on section (Ehrlich ascites tumour; Exp 18, at killing, control 4 ml): 0.1 mL
- day 14 status (Ehrlich ascites tumour; Exp 18, day 14 after ip transplantation, mouse 1 killed, mice 2 and 3 marked '?'): Ascites
- weight gain in % (Ehrlich ascites tumour; Exp 18, one mouse each, ip: mouse 1 4-OH—OPB from day 1, mouse 2 Etoposide + 4-OH—OPB from day 1, mouse 3 Colchicine from day 0, control mouse 42.4): 32.3%
